Test results reported in patent publication EP4112046A1, “PHARMACEUTICAL COMPOSITION AND USE THEREOF” (Alphala Co., Ltd., priority 2021, dated 2023).

Assay: Solubility in buffers or solutions, LC-MS/MS
Format: physicochemical
Conditions: 3 mg/mL, 37°C, 24 hrs
Method: The test formulation was added into indicated buffers or solutions (ddH2O or 0.9% saline, pH 7.4) to the final concentration of 3 mg/mL, followed by sonicating for 30 mins. Next, the mixture was put into 37°C water bath for 24 hrs. The mixture was mixed well by vortex and 1 mL of mixture was transferred into the 1.5 mL eppendorf tube, followed by centrifuging at 20817 xg for 30 mins. 10 µL of the supernatant was collected, and the concentration of the collected supernatant was determined by LC-MS/MS.

CCOC(=O)CCNC(=O)c1ccc(N[C@H](c2ccc(-c3nnc(-c4ccccc4)o3)cc2)C(C)C)cc1 [ALP001E]
Solubility (mg/ml) (H2O (pH7.0)): < LOQ | Solubility (mg/ml) (Saline (pH7.4)): < LOQ
